Key:
Test in all cases: relative viability (nuclei count vs DMSO), 5 days (fraction); higher = more cells survive
[1] = tested on: HARA
In short: (§1)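 A single step with final 0.05% Triton X-100, 1% formaldehyde and 1 ug/ml Hoechst fixed the cells and stained nuclei 5 days after treatment. Lung cancer cell lines in 1536-well plates had been treated by pin tool the day after seeding with one drug alone or a fixed anchor-drug dose plus five library-drug doses (not always all listed) in √10 steps, and nuclei were counted on 4× images. Relative viability is the ratio of nuclei in treated wells to nuclei in vehicle wells, taken as the median of duplicate plates.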

[2] = tested on: HCC-827
In short: as §1

[3] = tested on: NCI-H596
In short: as §1

[4] = tested on: SK-LU-1
In short: as §1

[5] = tested on: NCI-H661
In short: as §1

[6] = tested on: BEN
In short: as §1

[7] = tested on: NCI-H2170
In short: as §1

[8] = tested on: NCI-H2405
In short: as §1

[9] = tested on: NCI-H2087
In short: as §1

[10] = tested on: HCC-366
In short: as §1

[11] = tested on: NCI-H2342
In short: as §1

[12] = tested on: NCI-H2228
In short: as §1

COc1cc(N2CCC(C(N)=O)CC2)ccc1Nc1nc(N)c(Cl)c(Nc2ccccc2S(=O)(=O)C(C)C)n1 [HG-5-88-01] + N=C(N)NC(=N)NCCc1ccccc1 [Phenformin] (partner 250 µM)
relative viability ([1]; first compound 0.04 µM): 0.439
relative viability ([1]; first compound 0.1265 µM): 0.513
relative viability ([1]; first compound 0.4 µM): 0.48
relative viability ([1]; first compound 1.265 µM): 0.432
relative viability ([1]; first compound 4 µM): 0.324
relative viability ([2]; first compound 0.04 µM): 0.432
relative viability ([2]; first compound 0.1265 µM): 0.413
relative viability ([2]; first compound 0.4 µM): 0.384
relative viability ([2]; first compound 1.265 µM): 0.29
relative viability ([2]; first compound 4 µM): 0.249
relative viability ([3]; first compound 0.04 µM): 0.657
relative viability ([3]; first compound 0.1265 µM): 0.807
relative viability ([3]; first compound 0.4 µM): 0.612
relative viability ([3]; first compound 1.265 µM): 0.728
relative viability ([3]; first compound 4 µM): 0.379
relative viability ([4]; first compound 0.04 µM): 0.581
relative viability ([4]; first compound 0.1265 µM): 0.594
relative viability ([4]; first compound 0.4 µM): 0.507
relative viability ([4]; first compound 1.265 µM): 0.463
relative viability ([4]; first compound 4 µM): 0.288
relative viability ([5]; first compound 0.04 µM): 0.301
relative viability ([5]; first compound 0.1265 µM): 0.277
relative viability ([5]; first compound 0.4 µM): 0.259
relative viability ([5]; first compound 1.265 µM): 0.24
relative viability ([5]; first compound 4 µM): 0.248
relative viability ([6]; first compound 0.04 µM): 0.304
relative viability ([6]; first compound 0.1265 µM): 0.271
relative viability ([6]; first compound 0.4 µM): 0.274
relative viability ([6]; first compound 1.265 µM): 0.267
relative viability ([6]; first compound 4 µM): 0.285
relative viability ([7]; first compound 0.04 µM): 0.466
relative viability ([7]; first compound 0.1265 µM): 0.442
relative viability ([7]; first compound 0.4 µM): 0.461
relative viability ([7]; first compound 1.265 µM): 0.304
relative viability ([7]; first compound 4 µM): 0.352
relative viability ([8]; first compound 0.04 µM): 0.46
relative viability ([8]; first compound 0.1265 µM): 0.484
relative viability ([8]; first compound 0.4 µM): 0.469
relative viability ([8]; first compound 1.265 µM): 0.38
relative viability ([8]; first compound 4 µM): 0.432
relative viability ([9]; first compound 0.04 µM): 0.523
relative viability ([9]; first compound 0.1265 µM): 0.49
relative viability ([9]; first compound 0.4 µM): 0.469
relative viability ([9]; first compound 1.265 µM): 0.342
relative viability ([9]; first compound 4 µM): 0.319
relative viability ([10]; first compound 0.04 µM): 0.685
relative viability ([10]; first compound 0.1265 µM): 0.634
relative viability ([10]; first compound 0.4 µM): 0.581
relative viability ([10]; first compound 1.265 µM): 0.681
relative viability ([10]; first compound 4 µM): 0.476
relative viability ([11]; first compound 0.04 µM): 0.464
relative viability ([11]; first compound 0.1265 µM): 0.538
relative viability ([11]; first compound 0.4 µM): 0.614
relative viability ([11]; first compound 1.265 µM): 0.506
relative viability ([11]; first compound 4 µM): 0.6
relative viability ([12]; first compound 0.04 µM): 0.146
relative viability ([12]; first compound 0.1265 µM): 0.124
relative viability ([12]; first compound 0.4 µM): 0.174
relative viability ([12]; first compound 1.265 µM): 0.0974
